Six compounds from the supplement of paper PMC12076712 can be followed below.

Where only a bound is given, the exact number is not on record here.

Common to all, as to experiment: pIC50, kinobeads binding competition
For one experiment, the target named is UniProt P06493. A digest of the protocol: (§1)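 To obtain pIC50, fold changes versus vehicle were fitted to logistic dose-response curves (R drc package) across biological duplicates. Protein binding to Kinobeads was quantified by TMT10 LC-MS/MS of digested bead-bound proteins. Treatments used nine concentrations with a top of 30 μM, applied to live Jurkat cells in 1:4 steps for 60 min at 37 °C before lysis, or to Jurkat lysate or a 1:1:1:1 HEK293/K-562/HepG2/placenta lysate mix in 1:5 steps for 60 min at 4 °C.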

In a further experiment the target is T1, UniProt Q8TBX8.
T1 sequence (whole entry): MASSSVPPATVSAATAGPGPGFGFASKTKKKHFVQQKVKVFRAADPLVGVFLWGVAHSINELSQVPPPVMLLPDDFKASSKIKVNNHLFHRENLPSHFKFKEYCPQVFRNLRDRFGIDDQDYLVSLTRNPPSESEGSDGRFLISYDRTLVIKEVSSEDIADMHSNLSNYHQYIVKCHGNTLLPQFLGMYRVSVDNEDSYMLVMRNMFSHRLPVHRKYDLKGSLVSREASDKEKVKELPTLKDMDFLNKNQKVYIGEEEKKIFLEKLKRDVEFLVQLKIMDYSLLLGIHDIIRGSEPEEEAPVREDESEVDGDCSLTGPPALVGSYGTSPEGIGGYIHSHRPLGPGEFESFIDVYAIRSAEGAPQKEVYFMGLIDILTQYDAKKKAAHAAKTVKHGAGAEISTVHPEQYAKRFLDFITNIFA
A digest of the protocol:
as §1

In the next experiment the target is UniProt Q92918. In a few lines: as §1
The target of a further experiment is PLK1 (UniProt P53350). A digest of the protocol: as §1
The target in the next experiment is T2, SGK3 (UniProt Q96BR1).
T2 sequence (whole entry): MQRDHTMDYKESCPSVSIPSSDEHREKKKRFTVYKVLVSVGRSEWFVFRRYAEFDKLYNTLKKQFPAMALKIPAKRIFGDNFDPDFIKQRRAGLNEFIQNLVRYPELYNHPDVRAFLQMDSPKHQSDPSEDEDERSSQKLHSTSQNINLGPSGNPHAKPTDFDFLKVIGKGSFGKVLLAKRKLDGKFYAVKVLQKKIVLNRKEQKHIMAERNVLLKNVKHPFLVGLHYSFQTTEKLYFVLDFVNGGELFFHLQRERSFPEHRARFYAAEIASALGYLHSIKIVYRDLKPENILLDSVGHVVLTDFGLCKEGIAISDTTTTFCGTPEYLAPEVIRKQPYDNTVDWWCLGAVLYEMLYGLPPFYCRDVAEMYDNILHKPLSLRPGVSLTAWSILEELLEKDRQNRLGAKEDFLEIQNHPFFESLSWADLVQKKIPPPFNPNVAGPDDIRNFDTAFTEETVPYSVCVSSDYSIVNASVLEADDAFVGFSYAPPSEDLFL
A digest of the protocol: as §1

The target in the next experiment is CIT (UniProt O14578). In a few lines: as §1
The target in a further experiment is UniProt Q14289. A digest of the protocol: as §1
For another experiment, the target named is UniProt P35916. To be noted: cell material: Lysate mix. A digest of the protocol: as §1
In the next experiment the target is NEK6 (UniProt Q9HC98). The following applies: cell material: Lysate mix. In a few lines: as §1
In the next experiment the target is T3, EPHB4 (UniProt P54760).
T3 sequence (whole entry): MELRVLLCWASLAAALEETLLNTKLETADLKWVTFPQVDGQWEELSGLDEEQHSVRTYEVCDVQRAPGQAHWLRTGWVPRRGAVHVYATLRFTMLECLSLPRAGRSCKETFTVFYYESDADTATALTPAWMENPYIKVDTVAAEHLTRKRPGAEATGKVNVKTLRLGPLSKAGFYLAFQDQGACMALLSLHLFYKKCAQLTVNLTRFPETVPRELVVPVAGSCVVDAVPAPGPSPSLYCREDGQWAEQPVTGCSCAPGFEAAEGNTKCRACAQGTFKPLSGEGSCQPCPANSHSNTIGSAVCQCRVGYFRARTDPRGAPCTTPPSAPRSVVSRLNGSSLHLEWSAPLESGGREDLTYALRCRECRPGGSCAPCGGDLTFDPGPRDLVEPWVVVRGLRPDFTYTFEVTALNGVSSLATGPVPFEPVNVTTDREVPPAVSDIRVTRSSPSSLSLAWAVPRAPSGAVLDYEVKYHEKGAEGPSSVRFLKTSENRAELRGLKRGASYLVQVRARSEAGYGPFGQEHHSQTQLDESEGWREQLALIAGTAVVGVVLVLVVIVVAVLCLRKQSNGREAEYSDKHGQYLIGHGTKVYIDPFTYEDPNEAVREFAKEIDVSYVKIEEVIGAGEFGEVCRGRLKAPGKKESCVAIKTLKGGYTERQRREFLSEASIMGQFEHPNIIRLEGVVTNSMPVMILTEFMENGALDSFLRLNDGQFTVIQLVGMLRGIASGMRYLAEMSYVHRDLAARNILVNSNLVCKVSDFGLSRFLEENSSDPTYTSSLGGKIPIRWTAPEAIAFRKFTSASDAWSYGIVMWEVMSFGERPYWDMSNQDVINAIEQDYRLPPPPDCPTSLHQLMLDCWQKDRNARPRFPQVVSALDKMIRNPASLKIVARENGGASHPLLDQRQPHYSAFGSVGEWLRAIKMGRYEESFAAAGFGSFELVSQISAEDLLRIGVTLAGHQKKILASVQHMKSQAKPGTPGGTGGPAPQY
The following applies: cell material: Lysate mix. A digest of the protocol:
as §1

A further experiment addresses CAMKK1 (UniProt Q8N5S9). In a few lines: as §1

Chain of CAMKK1 (Q8N5S9 whole entry, looked up): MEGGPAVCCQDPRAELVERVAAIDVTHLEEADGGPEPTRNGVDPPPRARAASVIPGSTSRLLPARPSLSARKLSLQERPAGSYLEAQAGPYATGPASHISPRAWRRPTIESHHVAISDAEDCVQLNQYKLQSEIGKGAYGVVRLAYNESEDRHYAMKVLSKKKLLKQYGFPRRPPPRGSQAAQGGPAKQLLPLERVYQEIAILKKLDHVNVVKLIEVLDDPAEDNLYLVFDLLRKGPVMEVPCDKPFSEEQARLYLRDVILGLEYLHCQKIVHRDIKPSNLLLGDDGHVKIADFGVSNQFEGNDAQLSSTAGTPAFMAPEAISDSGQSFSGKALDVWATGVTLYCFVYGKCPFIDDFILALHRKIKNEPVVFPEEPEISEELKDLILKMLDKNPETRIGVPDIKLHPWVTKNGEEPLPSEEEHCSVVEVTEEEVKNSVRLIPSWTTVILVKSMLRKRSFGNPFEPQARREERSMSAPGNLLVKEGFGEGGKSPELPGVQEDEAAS
Chain of PLK1 (P53350 whole entry): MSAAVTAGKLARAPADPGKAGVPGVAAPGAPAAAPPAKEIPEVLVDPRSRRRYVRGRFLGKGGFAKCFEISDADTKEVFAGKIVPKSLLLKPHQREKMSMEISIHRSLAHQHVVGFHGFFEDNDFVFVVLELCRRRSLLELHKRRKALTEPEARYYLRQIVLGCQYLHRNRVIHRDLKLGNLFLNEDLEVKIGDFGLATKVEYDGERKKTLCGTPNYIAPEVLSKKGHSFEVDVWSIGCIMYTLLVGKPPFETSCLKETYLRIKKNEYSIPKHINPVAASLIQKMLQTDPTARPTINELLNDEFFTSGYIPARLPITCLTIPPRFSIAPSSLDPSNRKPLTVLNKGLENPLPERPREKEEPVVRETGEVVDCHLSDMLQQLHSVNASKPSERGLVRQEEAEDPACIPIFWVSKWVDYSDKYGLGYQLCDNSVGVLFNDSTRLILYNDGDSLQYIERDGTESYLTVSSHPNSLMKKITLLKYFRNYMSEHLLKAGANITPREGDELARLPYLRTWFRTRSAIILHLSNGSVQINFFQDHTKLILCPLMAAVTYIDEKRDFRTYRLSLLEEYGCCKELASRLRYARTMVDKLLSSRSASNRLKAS
Chain of NEK6 (Q9HC98 whole entry): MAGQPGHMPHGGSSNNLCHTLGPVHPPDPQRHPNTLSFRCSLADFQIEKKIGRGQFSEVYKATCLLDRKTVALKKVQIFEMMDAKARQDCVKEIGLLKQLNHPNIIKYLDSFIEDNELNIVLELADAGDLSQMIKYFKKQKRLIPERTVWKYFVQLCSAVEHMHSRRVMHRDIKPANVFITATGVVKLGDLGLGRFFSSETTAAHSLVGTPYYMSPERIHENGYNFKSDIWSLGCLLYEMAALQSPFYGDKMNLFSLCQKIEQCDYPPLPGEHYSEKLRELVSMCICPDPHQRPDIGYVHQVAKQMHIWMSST
Chain of CIT (O14578 whole entry): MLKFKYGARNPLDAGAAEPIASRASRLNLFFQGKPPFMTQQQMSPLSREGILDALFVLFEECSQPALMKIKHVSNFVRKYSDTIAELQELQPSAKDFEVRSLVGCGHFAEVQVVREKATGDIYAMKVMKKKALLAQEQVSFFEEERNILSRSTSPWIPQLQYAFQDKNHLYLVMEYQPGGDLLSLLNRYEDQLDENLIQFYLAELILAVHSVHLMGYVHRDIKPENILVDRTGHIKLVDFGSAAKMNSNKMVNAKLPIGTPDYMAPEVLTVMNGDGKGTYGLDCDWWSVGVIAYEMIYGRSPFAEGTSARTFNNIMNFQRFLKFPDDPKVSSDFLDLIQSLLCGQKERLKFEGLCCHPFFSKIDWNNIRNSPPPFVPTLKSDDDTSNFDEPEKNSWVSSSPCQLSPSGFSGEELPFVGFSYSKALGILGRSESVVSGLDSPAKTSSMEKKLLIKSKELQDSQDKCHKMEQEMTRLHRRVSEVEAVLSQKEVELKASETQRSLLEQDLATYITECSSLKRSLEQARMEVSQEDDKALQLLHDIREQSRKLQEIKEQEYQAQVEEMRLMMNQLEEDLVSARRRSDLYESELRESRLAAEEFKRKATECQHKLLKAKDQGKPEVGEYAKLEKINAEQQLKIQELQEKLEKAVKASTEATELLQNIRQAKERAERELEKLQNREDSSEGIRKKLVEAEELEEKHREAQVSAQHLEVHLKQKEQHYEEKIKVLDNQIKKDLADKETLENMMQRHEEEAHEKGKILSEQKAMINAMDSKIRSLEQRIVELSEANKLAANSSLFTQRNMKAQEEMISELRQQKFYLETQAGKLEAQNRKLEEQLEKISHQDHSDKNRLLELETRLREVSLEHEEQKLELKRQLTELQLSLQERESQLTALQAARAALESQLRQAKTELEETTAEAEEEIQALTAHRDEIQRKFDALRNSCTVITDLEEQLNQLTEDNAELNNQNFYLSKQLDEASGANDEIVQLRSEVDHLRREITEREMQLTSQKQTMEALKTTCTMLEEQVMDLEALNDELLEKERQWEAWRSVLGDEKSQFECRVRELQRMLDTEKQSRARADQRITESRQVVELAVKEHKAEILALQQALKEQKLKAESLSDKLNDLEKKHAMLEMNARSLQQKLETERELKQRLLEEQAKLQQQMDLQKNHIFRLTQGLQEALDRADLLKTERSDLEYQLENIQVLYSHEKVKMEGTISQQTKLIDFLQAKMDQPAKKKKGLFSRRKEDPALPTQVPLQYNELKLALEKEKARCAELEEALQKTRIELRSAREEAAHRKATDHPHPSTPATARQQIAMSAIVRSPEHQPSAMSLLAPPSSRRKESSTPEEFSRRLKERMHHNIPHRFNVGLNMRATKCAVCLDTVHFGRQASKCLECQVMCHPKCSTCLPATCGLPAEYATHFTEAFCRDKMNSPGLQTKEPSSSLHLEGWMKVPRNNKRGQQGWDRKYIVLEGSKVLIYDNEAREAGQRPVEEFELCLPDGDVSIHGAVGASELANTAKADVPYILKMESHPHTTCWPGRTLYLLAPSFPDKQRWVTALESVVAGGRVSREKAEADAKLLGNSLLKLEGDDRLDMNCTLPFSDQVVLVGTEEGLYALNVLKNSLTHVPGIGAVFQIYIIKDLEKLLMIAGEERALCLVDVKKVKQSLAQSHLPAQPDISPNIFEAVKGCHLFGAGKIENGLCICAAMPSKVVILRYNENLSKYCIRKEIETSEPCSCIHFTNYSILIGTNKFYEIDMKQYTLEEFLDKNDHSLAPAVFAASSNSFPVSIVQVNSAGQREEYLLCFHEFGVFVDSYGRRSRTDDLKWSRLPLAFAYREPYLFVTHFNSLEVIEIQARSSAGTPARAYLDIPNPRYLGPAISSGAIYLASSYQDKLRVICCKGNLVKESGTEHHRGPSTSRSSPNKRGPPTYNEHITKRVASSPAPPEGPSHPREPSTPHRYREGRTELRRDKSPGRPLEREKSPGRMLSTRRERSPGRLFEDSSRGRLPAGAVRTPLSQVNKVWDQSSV
Chain of UniProt Q92918 (Q92918 whole entry, looked up): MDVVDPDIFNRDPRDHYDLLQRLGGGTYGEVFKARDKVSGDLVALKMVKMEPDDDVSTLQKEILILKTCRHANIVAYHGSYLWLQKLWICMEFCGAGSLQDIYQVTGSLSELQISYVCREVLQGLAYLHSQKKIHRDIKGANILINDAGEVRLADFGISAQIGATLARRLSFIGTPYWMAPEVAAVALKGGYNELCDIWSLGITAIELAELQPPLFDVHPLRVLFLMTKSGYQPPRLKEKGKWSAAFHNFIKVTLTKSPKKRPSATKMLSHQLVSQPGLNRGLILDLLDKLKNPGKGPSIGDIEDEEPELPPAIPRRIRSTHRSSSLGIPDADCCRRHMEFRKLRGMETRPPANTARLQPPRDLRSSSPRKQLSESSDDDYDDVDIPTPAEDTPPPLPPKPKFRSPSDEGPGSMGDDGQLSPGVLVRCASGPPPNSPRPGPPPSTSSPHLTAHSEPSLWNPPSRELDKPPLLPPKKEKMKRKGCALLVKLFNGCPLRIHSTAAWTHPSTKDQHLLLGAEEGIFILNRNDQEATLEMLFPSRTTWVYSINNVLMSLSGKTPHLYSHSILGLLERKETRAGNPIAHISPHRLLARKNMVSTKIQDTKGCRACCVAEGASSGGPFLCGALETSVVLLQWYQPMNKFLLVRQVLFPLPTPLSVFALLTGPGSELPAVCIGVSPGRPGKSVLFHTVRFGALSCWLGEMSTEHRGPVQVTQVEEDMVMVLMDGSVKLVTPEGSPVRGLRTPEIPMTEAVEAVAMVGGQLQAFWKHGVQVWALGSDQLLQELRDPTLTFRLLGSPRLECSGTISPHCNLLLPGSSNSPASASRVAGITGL
Chain of UniProt P06493 (P06493 whole entry, looked up): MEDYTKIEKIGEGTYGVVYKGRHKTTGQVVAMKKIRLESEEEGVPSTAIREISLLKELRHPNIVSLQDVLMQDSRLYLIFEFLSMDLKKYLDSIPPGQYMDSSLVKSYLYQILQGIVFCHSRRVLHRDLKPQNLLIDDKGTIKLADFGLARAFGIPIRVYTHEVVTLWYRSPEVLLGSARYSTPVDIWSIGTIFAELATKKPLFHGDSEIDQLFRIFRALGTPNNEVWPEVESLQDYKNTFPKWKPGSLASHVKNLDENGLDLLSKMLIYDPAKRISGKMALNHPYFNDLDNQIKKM

For `Cc1cc(Nc2cc(C(=O)NCCNC(=O)OC3CC/C=C/CCC3)nc(N3CCN(Cc4ccc(S(=O)(=O)F)cc4)CC3)n2)n[nH]1` (stereo unspecified), the pIC50 is under 4.52 at UniProt P06493 (cell material: Lysate mix); under 4.52 at UniProt Q8TBX8 (cell material: Lysate mix); under 4.52 at UniProt Q92918 (cell material: Lysate mix); under 4.52 on PLK1 (cell material: Lysate mix); 5.22 on SGK3 (cell material: Lysate mix); under 4.52 on CIT (cell material: Lysate mix). Also, the pIC50 was under 4.52 at UniProt Q14289 (cell material: Lysate mix); under 4.52 at UniProt P35916; under 4.52 on NEK6; under 4.52 on EPHB4; 5.96 at CAMKK1 (cell material: Lysate mix).
As to `C#CCNC(=O)c1cc(Nc2cc(C3CC3)[nH]n2)nc(N2CCN(Cc3ccc(S(=O)(=O)F)cc3)CC2)n1`, the pIC50 at UniProt P06493 (cell material: Jurkat cells) was 6.32; on UniProt P06493 (cell material: Jurkat lysate), 5.37; at UniProt P06493 (cell material: Lysate mix), 5.7; at UniProt Q8TBX8 (cell material: Jurkat cells), 5.4; at UniProt Q8TBX8 (cell material: Jurkat lysate), under 4.52; on UniProt Q8TBX8 (cell material: Lysate mix) it was under 4.52. In addition, the pIC50 on UniProt Q92918 (cell material: Jurkat cells) is 5.88; at UniProt Q92918 (cell material: Jurkat lysate), 5.35; on UniProt Q92918 (cell material: Lysate mix) it was 5.9; on PLK1 (cell material: Jurkat cells), 5.83; at PLK1 (cell material: Jurkat lysate), under 4.52; on PLK1 (cell material: Lysate mix), under 4.52. The negative-log IC50 (pIC50) is 6.6 on SGK3 (cell material: Jurkat cells); 5.65 at SGK3 (cell material: Jurkat lysate); 5.96 on SGK3 (cell material: Lysate mix); under 4.52 on CIT (cell material: Jurkat lysate); under 4.52 at CIT (cell material: Lysate mix); 5.98 at UniProt Q14289 (cell material: Jurkat cells). For the same compound, the pIC50 was under 4.52 on UniProt Q14289 (cell material: Jurkat lysate); under 4.52 at UniProt Q14289 (cell material: Lysate mix); under 4.52 on UniProt P35916; under 4.52 on NEK6; under 4.52 on EPHB4; 6.26 on CAMKK1 (cell material: Jurkat cells). Further, the values for the pIC50 at CAMKK1 (cell material: Jurkat lysate) and at CAMKK1 (cell material: Lysate mix) were 6.86 and 7.04, respectively.
For `CCNC(=O)c1cc(Nc2cc(C3CC3)[nH]n2)nc(N2CCN(Cc3ccc(S(=O)(=O)F)cc3)CC2)n1`, the pIC50 is 5.5 at UniProt P06493 (cell material: Lysate mix); under 4.52 on UniProt Q8TBX8 (cell material: Lysate mix); 5.8 on UniProt Q92918 (cell material: Lysate mix); under 4.52 on PLK1 (cell material: Lysate mix); 5.67 on SGK3 (cell material: Lysate mix); under 4.52 on CIT (cell material: Lysate mix). Moreover, the pIC50 on UniProt Q14289 (cell material: Lysate mix) is under 4.52; on UniProt P35916 it was under 4.52; on NEK6 it was under 4.52; at EPHB4 it was under 4.52; on CAMKK1 (cell material: Lysate mix), 6.68.
Consider `C#CCNC(=O)c1cc(Nc2cc(C)[nH]n2)nc(N2CCN(Cc3ccc(S(=O)(=O)F)cc3)CC2)n1`, for which the pIC50 at UniProt P06493 (cell material: Lysate mix) was under 4.52; at UniProt Q8TBX8 (cell material: Lysate mix), under 4.52; at UniProt Q92918 (cell material: Lysate mix) it was 4.77; on PLK1 (cell material: Lysate mix), under 4.52; at SGK3 (cell material: Lysate mix), 6.06; at CIT (cell material: Lysate mix), under 4.52. Also, the pIC50 at UniProt Q14289 (cell material: Lysate mix) was under 4.52; on UniProt P35916, under 4.52; at NEK6, under 4.52; at EPHB4, under 4.52; on CAMKK1 (cell material: Lysate mix), 5.98.
With `O=C(NCCNC(=O)c1cc(Nc2cc(C3CC3)[nH]n2)nc(N2CCN(Cc3ccc(S(=O)(=O)F)cc3)CC2)n1)OC1CC/C=C/CCC1` (stereo unspecified), the pIC50 on UniProt P06493 (cell material: Jurkat cells) was 5.11; at UniProt P06493 (cell material: Jurkat lysate), under 4.52; at UniProt P06493 (cell material: Lysate mix), under 4.52; at UniProt Q8TBX8 (cell material: Jurkat lysate) it was under 4.52; at UniProt Q8TBX8 (cell material: Lysate mix), under 4.52; at UniProt Q92918 (cell material: Jurkat cells), 5.32. In addition, the pIC50 on UniProt Q92918 (cell material: Jurkat lysate) was under 4.52; at UniProt Q92918 (cell material: Lysate mix) it was under 4.52; at PLK1 (cell material: Jurkat cells), 5.85; on PLK1 (cell material: Jurkat lysate), under 4.52; on PLK1 (cell material: Lysate mix), under 4.52; at SGK3 (cell material: Jurkat cells) it was 6.44. Also, the pIC50 on SGK3 (cell material: Jurkat lysate) was 4.92; at SGK3 (cell material: Lysate mix), 4.88; on CIT (cell material: Jurkat cells), under 4.52; at CIT (cell material: Jurkat lysate) it was under 4.52; at CIT (cell material: Lysate mix), under 4.52; on UniProt Q14289 (cell material: Jurkat cells) it was 4.98. Also, the pIC50 on UniProt Q14289 (cell material: Jurkat lysate) is under 4.52; on UniProt Q14289 (cell material: Lysate mix), under 4.52; at UniProt P35916, under 4.52; on NEK6, under 4.52; on EPHB4 it was under 4.52; on CAMKK1 (cell material: Jurkat cells), 6.77. Moreover, the pIC50 came out at 6.72 on CAMKK1 (cell material: Jurkat lysate) and 6.42 on CAMKK1 (cell material: Lysate mix).
As to `CCNC(=O)c1cc(Nc2cc(C)[nH]n2)nc(N2CCN(Cc3ccc(S(=O)(=O)F)cc3)CC2)n1`, the pIC50 on UniProt P06493 (cell material: Lysate mix) was under 4.52; on UniProt Q8TBX8 (cell material: Lysate mix) it was under 4.52; on UniProt Q92918 (cell material: Lysate mix), 4.78; at PLK1 (cell material: Lysate mix), under 4.52; on SGK3 (cell material: Lysate mix), 5.98; on CIT (cell material: Lysate mix), under 4.52. Moreover, the pIC50 on UniProt Q14289 (cell material: Lysate mix) is under 4.52; on UniProt P35916, under 4.52; on NEK6, under 4.52; at EPHB4 it was under 4.52; on CAMKK1 (cell material: Lysate mix) it was 5.97.

For orientation: pIC50 means the IC50 on a negative log10 scale, so that one unit is a factor of ten. A high value points to a small IC50.
